Results on 1 sequence are retold here after article PMC7961786, “Magic Peptide: Unique Properties of the LRR11 Peptide in the Activation of Leukotriene Synthesis in Human Neutrophils” (International Journal of Molecular Sciences, 2021).

The subject of the test is NeutrAvidin. Nature of the test: TSM acoustic biosensor, unspecific binding to NeutrAvidin in the absence of ODNs. An excerpt: To characterize the interaction of the studied synthetic ODNs with the LRR11 peptide, we applied the thickness shear mode (TSM) acoustic biosensor method, which is based on the investigation of ultrasonic waves in piezoelectric materials such as AT-cut quartz. This approach involved immobilizing a 5′-biotinylated ODN on the surface of TSM transducer covered by NeutrAvidin and then adding the LRR11 peptide. An unrelated peptide (URP) with a random primary structure ([…]) was used as a negative control. The measurement procedure was divided into several steps, in which each immobilization stage was followed by washing with an appropriate buffer solution; when peptide solutions at different concentrations (from 1 to 100 nM) were added to the surface-modified TSM transducer, a wash with Hanks buffer was used before increasing the peptide concentration.
Eight MHz AT-cut piezoelectric quartz crystal transducer was obtained from CH Instruments, Austin, TX, USA. The transducer was covered on both sides with thin layers of gold that served as electrodes (working area 0.2 cm^2). Prior ODNs immobilization, the crystal was carefully cleaned with basic Piranha solution (29% NH3, 30% H2O and H2O2 with volumetric 1:5:1 ratio, respectively) for 25 min. After the thorough cleaning, the crystal was positioned between two silicon O-rings in a flow-through cell. […]

Consider “QLRKLNLSFNYQKRVSFAHLSLAPSFGSLV [LRR11, 30 amino acid peptide from leucine-rich repeat of TLR9]”, for which the “unspecific binding to NeutrAvidin” value was “no unspecific biding”.
